# Experimental data as given in patent publication US20100216724A1, “USE OF F[…] (196-203 ) AS A […] AGENT” (priority 2007, published 2010).
# Where no end group is shown, it is not given here.
# System: drug-resistant Mycobacterium tuberculosis
# Details: drug-resistant Mycobacterium tuberculosis growth; peptide 10 micrograms per ml; seven days
substance,measurement,value
SRNRCNDQ-NH2,% inhibition,0.0%
